Columns and labels:
[1] = target: T1, panel of 442 kinases (Homo sapiens, UniProt Q13546); assay type: binding; settings: Compound Concentration 10 µM
T1 construct: purchased KINOMEscan
T1 sequence (Q13546 1-671): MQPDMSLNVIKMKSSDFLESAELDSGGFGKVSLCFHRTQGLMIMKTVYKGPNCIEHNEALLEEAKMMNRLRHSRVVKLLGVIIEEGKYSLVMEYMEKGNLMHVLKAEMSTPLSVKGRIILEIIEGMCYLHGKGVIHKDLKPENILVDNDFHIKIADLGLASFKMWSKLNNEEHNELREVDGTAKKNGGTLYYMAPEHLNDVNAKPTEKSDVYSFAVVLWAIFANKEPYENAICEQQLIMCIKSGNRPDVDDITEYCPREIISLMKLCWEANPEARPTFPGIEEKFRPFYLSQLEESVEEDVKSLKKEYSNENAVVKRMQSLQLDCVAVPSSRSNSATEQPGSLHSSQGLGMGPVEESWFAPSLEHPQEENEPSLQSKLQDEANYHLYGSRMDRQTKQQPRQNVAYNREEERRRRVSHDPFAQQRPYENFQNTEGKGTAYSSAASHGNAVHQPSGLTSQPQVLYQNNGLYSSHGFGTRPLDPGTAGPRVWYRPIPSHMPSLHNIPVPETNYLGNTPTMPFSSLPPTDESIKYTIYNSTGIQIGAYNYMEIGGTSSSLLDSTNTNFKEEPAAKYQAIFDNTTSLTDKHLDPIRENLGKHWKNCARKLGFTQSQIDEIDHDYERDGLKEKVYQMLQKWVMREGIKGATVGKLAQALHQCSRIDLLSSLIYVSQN
Text: (§1) We assessed the selectivity of members of this scaffold using the KINOMEscan methodology across a near comprehensive panel of 442 kinases [[18,27]].

[2] = target: T2, panel of 442 kinases (Homo sapiens, UniProt Q8N4C8); assay type: binding; settings: Compound Concentration 10 µM
T2 construct: purchased KINOMEscan
Text: as §1

T2 sequence (Q8N4C8 whole entry): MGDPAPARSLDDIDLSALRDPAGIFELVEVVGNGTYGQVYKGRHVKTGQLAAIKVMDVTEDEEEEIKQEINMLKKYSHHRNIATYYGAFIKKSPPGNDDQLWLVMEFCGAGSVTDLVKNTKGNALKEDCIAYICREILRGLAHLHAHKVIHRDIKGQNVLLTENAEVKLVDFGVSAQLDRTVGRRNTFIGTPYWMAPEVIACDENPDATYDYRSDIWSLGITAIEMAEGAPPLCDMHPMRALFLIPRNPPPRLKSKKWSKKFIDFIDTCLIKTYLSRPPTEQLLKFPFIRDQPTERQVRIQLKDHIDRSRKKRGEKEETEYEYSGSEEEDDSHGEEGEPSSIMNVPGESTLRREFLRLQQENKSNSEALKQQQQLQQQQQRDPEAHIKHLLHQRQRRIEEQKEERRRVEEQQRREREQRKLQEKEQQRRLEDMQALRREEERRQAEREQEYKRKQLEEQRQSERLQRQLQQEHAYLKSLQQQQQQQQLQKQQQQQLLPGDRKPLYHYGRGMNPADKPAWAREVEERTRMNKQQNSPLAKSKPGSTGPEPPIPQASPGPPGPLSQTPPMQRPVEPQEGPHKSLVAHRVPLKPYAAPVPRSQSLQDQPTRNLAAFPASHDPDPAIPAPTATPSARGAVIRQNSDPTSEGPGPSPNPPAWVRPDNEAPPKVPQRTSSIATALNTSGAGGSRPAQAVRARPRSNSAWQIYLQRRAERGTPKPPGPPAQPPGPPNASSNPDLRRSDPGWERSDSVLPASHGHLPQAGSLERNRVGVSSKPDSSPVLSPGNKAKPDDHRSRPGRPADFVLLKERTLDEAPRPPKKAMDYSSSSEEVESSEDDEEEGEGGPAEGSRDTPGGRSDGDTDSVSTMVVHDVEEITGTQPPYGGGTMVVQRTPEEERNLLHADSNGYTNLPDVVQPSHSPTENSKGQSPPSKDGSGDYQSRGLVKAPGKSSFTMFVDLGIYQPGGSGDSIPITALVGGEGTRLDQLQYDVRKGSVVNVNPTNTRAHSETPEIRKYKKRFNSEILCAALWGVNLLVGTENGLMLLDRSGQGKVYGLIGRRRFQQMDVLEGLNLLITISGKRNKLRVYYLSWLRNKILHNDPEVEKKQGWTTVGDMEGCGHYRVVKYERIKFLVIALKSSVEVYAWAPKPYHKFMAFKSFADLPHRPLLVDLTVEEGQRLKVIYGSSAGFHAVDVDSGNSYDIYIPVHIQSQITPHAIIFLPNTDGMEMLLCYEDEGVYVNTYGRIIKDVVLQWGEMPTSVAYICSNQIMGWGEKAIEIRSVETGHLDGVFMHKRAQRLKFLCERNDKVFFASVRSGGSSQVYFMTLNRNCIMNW

Row | SMILES | KINOMEscan: RIPK1 [1] | KINOMEscan: MINK [2]
1 | COc1cc(C(=O)N2CCC(N3CCN(C)CC3)CC2)ccc1Nc1ncc2c(n1)N(C)c1ccccc1C(=O)N2C [15 (LRRK2-IN-1)] | 99 | 77
2 | COc1cc(C(=O)N2CCC(N3CCN(C)CC3)CC2)ccc1Nc1ncc2c(n1)N1CCc3cccc(c31)C(=O)N2C [Compound 24] | 76 | 36
3 | COc1cc(C(=O)N2CCC(N3CCN(C)CC3)CC2)ccc1Nc1ncc2c(n1)N(C1CCCC1)c1ccccc1C(=O)N2C [Compound 25, 11-cyclopentyl-2-((2-methoxy-4-(4-(4-methylpiperazin-1-yl)piperidine-1-carbonyl)phenyl)amino)-5-methyl-5H-benzo[e]pyrimido[5,4-b][1,4]diazepin-6(11H)-one] | 100 | 100
4 | CCOc1cc(C(=O)N2CCC(N3CCN(C)CC3)CC2)ccc1Nc1ncc2c(n1)N(C1CCCC1)c1ccccc1C(=O)N2C [Compound 26] | 100 | 100
